Measured values: paper PMC5439695 (PLoS ONE, 2017)
Where a name gives a salt, the structure may show the parent alone. Read-outs that look alike come from different tables or passages of the source.

Assays:
estrogen receptor (ER) = settings: ER antagonist; ToxCast chemicals only; ref Judson 2015; cited from earlier work
[1] = system: HEK293 and HepG2 cell lines
HEK293 cells [2] = settings: HEK293 flor; for hek293_flor_bin: kinetics bin; for hek293_flor_emax_0 / hek293_flor_pod_0 / hek293_flor_wauc_0: time point 0; for hek293_flor_emax_8 / hek293_flor_pod_8 / hek293_flor_wauc_8: time point 8
HepG2 cells [3] = assay: CellTox Green Cytotoxicity Assay (flor) in HepG2, HepG2[flor]; assay type: cell-based, human; settings: HepG2 flor; for hepg2_flor_bin: kinetics bin; for hepg2_flor_emax_0 / hepg2_flor_pod_0 / hepg2_flor_wauc_0: time point 0;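 on hepg2 flor emax 0: percent activity versus DMSO-only wells with baseline rescaled to 0%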;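 on hepg2 flor emax 40: percent activity versus DMSO-only wells with baseline rescaled to 0%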
HepG2 cells [4] = settings: HepG2 glo; for hepg2_glo_bin: kinetics bin; for hepg2_glo_emax_0 / hepg2_glo_pod_0 / hepg2_glo_wauc_0: time point 0
HEK293 cells [5] = settings: HEK293 glo; for hek293_glo_bin: kinetics bin; for hek293_glo_emax_0 / hek293_glo_pod_0 / hek293_glo_wauc_0: time point 0
[6] = time point 16, given as negative log-scale values
[7] = time point 24, given as negative log-scale values
[8] = time point 32, given as negative log-scale values
[9] = time point 40, given as negative log-scale values
[10] = time point 8, given as negative log-scale values

## CC/C(=C(\c1ccc(O)cc1)c1ccc(OCCN(C)C)cc1)c1ccccc1 [4-Hydroxytamoxifen]
Estrogen receptor (ER)
  AUC score in Judson 2015: 0.686

## C[C@@]1(c2ccc(Oc3ccccc3)cc2)OC(=O)N(Nc2ccccc2)C1=O (racemic) [Famoxadone]
Estrogen receptor (ER)
  AUC score in Judson 2015: 0.000714

## CC(C)C1CCC(Cc2ccc(Cl)cc2)C1(O)Cn1cncn1 (stereo not shown) [Ipconazole]
Estrogen receptor (ER)
  AUC score in Judson 2015: 0.0166

## O=C1C2CC=CCC2C(=O)N1SC(Cl)(Cl)Cl (stereo not shown) [Captan]
Estrogen receptor (ER)
  AUC score in Judson 2015: 0

## O=C(c1ccc(OCCN2CCCCC2)cc1)c1c(-c2ccc(O)cc2)sc2cc(O)ccc12 [Raloxifene hydrochloride]
Estrogen receptor (ER)
  AUC score in Judson 2015: 0.671

## CN(C)c1ccc(C(=C2C=CC(=[N+](C)C)C=C2)c2ccccc2)cc1.CN(C)c1ccc(C(=C2C=CC(=[N+](C)C)C=C2)c2ccccc2)cc1.O=C(O)C(=O)O.O=C([O-])C(=O)O.O=C([O-])C(=O)O [Malachite green oxalate]
[1]; any activity in any time point/assay
  information: 1
HEK293 cells [2]
  hek293_flor_auc: 1.491
  hek293_flor_time: 24
  hek293_flor_bin: cv_46 (cv_46: 24 < time < 32)
  hek293_flor_emax_0: 0
  hek293_flor_pod_0: -4.417
  hek293_flor_wauc_0: 0
  hek293_flor_emax_8: 0
  hek293_flor_pod_8: -4.417
  hek293_flor_wauc_8: 0
HEK293 cells [2]; time point 16
  hek293_flor_emax_16: 25.2441
  hek293_flor_pod_16: -4.42
  hek293_flor_wauc_16: 0.5325
HEK293 cells [2]; [6]
  hek293_flor_ec50_16: -4.591
HEK293 cells [2]; time point 24
  hek293_flor_emax_24: 72.6532
  hek293_flor_pod_24: -4.806
  hek293_flor_wauc_24: 1.057
HEK293 cells [2]; [7]
  hek293_flor_ec50_24: -4.702
HEK293 cells [2]; time point 32
  hek293_flor_emax_32: 99.3082
  hek293_flor_pod_32: -5.521
  hek293_flor_wauc_32: 1.407
HEK293 cells [2]; [8]
  hek293_flor_ec50_32: -4.895
HEK293 cells [2]; time point 40
  hek293_flor_emax_40: 135.684
  hek293_flor_pod_40: -5.642
  hek293_flor_wauc_40: 1.5
HEK293 cells [2]; [9]
  hek293_flor_ec50_40: -5.028
HepG2 cells [3]
  hepg2_flor_auc: 1.813
  hepg2_flor_time: 8
  hepg2_flor_bin: cv_26 (cv_26: 8 < time < 16)
  hepg2_flor_emax_0: 0
  hepg2_flor_pod_0: -4.417
  hepg2_flor_wauc_0: 0
HepG2 cells [3]; time point 8
  hepg2_flor_emax_8: 44.8674
  hepg2_flor_pod_8: -4.571
  hepg2_flor_wauc_8: 0.868
HepG2 cells [3]; [10]
  hepg2_flor_ec50_8: -4.591
HepG2 cells [3]; time point 16
  hepg2_flor_emax_16: 142.047
  hepg2_flor_pod_16: -5.554
  hepg2_flor_wauc_16: 1.871
HepG2 cells [3]; [6]
  hepg2_flor_ec50_16: -4.76
HepG2 cells [3]; time point 24
  hepg2_flor_emax_24: 168.072
  hepg2_flor_pod_24: -5.707
  hepg2_flor_wauc_24: 2.035
HepG2 cells [3]; [7]
  hepg2_flor_ec50_24: -5.438
HepG2 cells [3]; time point 32
  hepg2_flor_emax_32: 231.16
  hepg2_flor_pod_32: -5.746
  hepg2_flor_wauc_32: 2.119
HepG2 cells [3]; [8]
  hepg2_flor_ec50_32: -5.498
HepG2 cells [3]; time point 40
  hepg2_flor_emax_40: 275.23
  hepg2_flor_pod_40: -6.016
  hepg2_flor_wauc_40: 2.222
HepG2 cells [3]; [9]
  hepg2_flor_ec50_40: -5.565
HepG2 cells [4]
  hepg2_glo_auc: 1.838
  hepg2_glo_time: 0
  hepg2_glo_bin: cv_16 (cv_16: 0 < time < 8)
  hepg2_glo_emax_0: 0
  hepg2_glo_pod_0: -4.417
  hepg2_glo_wauc_0: 0
HepG2 cells [4]; time point 8
  hepg2_glo_emax_8: -63.2822
  hepg2_glo_pod_8: -5.131
  hepg2_glo_wauc_8: 1.514
HepG2 cells [4]; [10]
  hepg2_glo_ec50_8: -4.735
HepG2 cells [4]; time point 16
  hepg2_glo_emax_16: -91.4856
  hepg2_glo_pod_16: -5.607
  hepg2_glo_wauc_16: 1.892
HepG2 cells [4]; [6]
  hepg2_glo_ec50_16: -5.318
HepG2 cells [4]; time point 24
  hepg2_glo_emax_24: -91.3465
  hepg2_glo_pod_24: -5.6539
  hepg2_glo_wauc_24: 1.966
HepG2 cells [4]; [7]
  hepg2_glo_ec50_24: -5.521
HepG2 cells [4]; time point 32
  hepg2_glo_emax_32: -92.3669
  hepg2_glo_pod_32: -5.816
  hepg2_glo_wauc_32: 2.064
HepG2 cells [4]; [8]
  hepg2_glo_ec50_32: -5.627
HepG2 cells [4]; time point 40
  hepg2_glo_emax_40: -91.0249
  hepg2_glo_pod_40: -5.846
  hepg2_glo_wauc_40: 2.087
HepG2 cells [4]; [9]
  hepg2_glo_ec50_40: -5.656
HEK293 cells [5]
  hek293_glo_auc: 1.897
  hek293_glo_time: 8
  hek293_glo_bin: cv_26 (cv_26: 8 < time < 16)
  hek293_glo_emax_0: 0
  hek293_glo_pod_0: -4.417
  hek293_glo_wauc_0: 0
HEK293 cells [5]; time point 8
  hek293_glo_emax_8: -47.964
  hek293_glo_pod_8: -5.267
  hek293_glo_wauc_8: 1.621
HEK293 cells [5]; [10]
  hek293_glo_ec50_8: -5.275
HEK293 cells [5]; time point 16
  hek293_glo_emax_16: -74.3913
  hek293_glo_pod_16: -6.896
  hek293_glo_wauc_16: 2.239
HEK293 cells [5]; [6]
  hek293_glo_ec50_16: -5.71
HEK293 cells [5]; time point 24
  hek293_glo_emax_24: -84.5759
  hek293_glo_pod_24: -6.8943
  hek293_glo_wauc_24: 2.321
HEK293 cells [5]; [7]
  hek293_glo_ec50_24: -6.073
HEK293 cells [5]; time point 32
  hek293_glo_emax_32: -91.2313
  hek293_glo_pod_32: -6.927
  hek293_glo_wauc_32: 2.36
HEK293 cells [5]; [8]
  hek293_glo_ec50_32: -6.025
HEK293 cells [5]; time point 40
  hek293_glo_emax_40: -94.0423
  hek293_glo_pod_40: -6.941
  hek293_glo_wauc_40: 2.382
HEK293 cells [5]; [9]
  hek293_glo_ec50_40: -6.071

## OC(c1ccc(Cl)cc1)(c1cncnc1)c1ccccc1Cl (stereo not shown) [Fenarimol]
Estrogen receptor (ER)
  AUC score in Judson 2015: 0.000907

## O=C(O)c1ccccc1O.Oc1cccc2cccnc12 [8-Quinolinol Salicylic acid (1:1)]
[1]
  information: 0
HEK293 cells [2]
  hek293_flor_auc: 0
  hek293_flor_time: 48
  hek293_flor_bin: inactive
  hek293_flor_emax_0: 0
  hek293_flor_pod_0: -4.417
  hek293_flor_wauc_0: 0
  hek293_flor_emax_8: 0
  hek293_flor_pod_8: -4.417
  hek293_flor_wauc_8: 0
HEK293 cells [2]; time point 16
  hek293_flor_emax_16: 0
  hek293_flor_pod_16: -4.417
  hek293_flor_wauc_16: 0
HEK293 cells [2]; time point 24
  hek293_flor_emax_24: 0
  hek293_flor_pod_24: -4.417
  hek293_flor_wauc_24: 0
HEK293 cells [2]; time point 32
  hek293_flor_emax_32: 0
  hek293_flor_pod_32: -4.417
  hek293_flor_wauc_32: 0
HEK293 cells [2]; time point 40
  hek293_flor_emax_40: 0
  hek293_flor_pod_40: -4.417
  hek293_flor_wauc_40: 0
HepG2 cells [3]
  hepg2_flor_auc: 0
  hepg2_flor_time: 48
  hepg2_flor_bin: inactive
  hepg2_flor_emax_0: 0
  hepg2_flor_pod_0: -4.417
  hepg2_flor_wauc_0: 0
HepG2 cells [3]; time point 8
  hepg2_flor_emax_8: 0
  hepg2_flor_pod_8: -4.417
  hepg2_flor_wauc_8: 0
HepG2 cells [3]; time point 16
  hepg2_flor_emax_16: 0
  hepg2_flor_pod_16: -4.417
  hepg2_flor_wauc_16: 0
HepG2 cells [3]; time point 24
  hepg2_flor_emax_24: 0
  hepg2_flor_pod_24: -4.417
  hepg2_flor_wauc_24: 0
HepG2 cells [3]; time point 32
  hepg2_flor_emax_32: 0
  hepg2_flor_pod_32: -4.417
  hepg2_flor_wauc_32: 0
HepG2 cells [3]; time point 40
  hepg2_flor_emax_40: 0
  hepg2_flor_pod_40: -4.417
  hepg2_flor_wauc_40: 0
HepG2 cells [4]
  hepg2_glo_auc: 0
  hepg2_glo_time: 48
  hepg2_glo_bin: inactive
  hepg2_glo_emax_0: 0
  hepg2_glo_pod_0: -4.417
  hepg2_glo_wauc_0: 0
HepG2 cells [4]; time point 8
  hepg2_glo_emax_8: 0
  hepg2_glo_pod_8: -4.417
  hepg2_glo_wauc_8: 0
HepG2 cells [4]; time point 16
  hepg2_glo_emax_16: 0
  hepg2_glo_pod_16: -4.417
  hepg2_glo_wauc_16: 0
HepG2 cells [4]; time point 24
  hepg2_glo_emax_24: 0
  hepg2_glo_pod_24: -4.417
  hepg2_glo_wauc_24: 0
HepG2 cells [4]; time point 32
  hepg2_glo_emax_32: 0
  hepg2_glo_pod_32: -4.417
  hepg2_glo_wauc_32: 0
HepG2 cells [4]; time point 40
  hepg2_glo_emax_40: 0
  hepg2_glo_pod_40: -4.417
  hepg2_glo_wauc_40: 0
HEK293 cells [5]
  hek293_glo_auc: 0
  hek293_glo_time: 48
  hek293_glo_bin: inactive
  hek293_glo_emax_0: 0
  hek293_glo_pod_0: -4.417
  hek293_glo_wauc_0: 0
HEK293 cells [5]; time point 8
  hek293_glo_emax_8: 0
  hek293_glo_pod_8: -4.417
  hek293_glo_wauc_8: 0
HEK293 cells [5]; time point 16
  hek293_glo_emax_16: 0
  hek293_glo_pod_16: -4.417
  hek293_glo_wauc_16: 0
HEK293 cells [5]; time point 24
  hek293_glo_emax_24: 0
  hek293_glo_pod_24: -4.417
  hek293_glo_wauc_24: 0
HEK293 cells [5]; time point 32
  hek293_glo_emax_32: 0
  hek293_glo_pod_32: -4.417
  hek293_glo_wauc_32: 0
HEK293 cells [5]; time point 40
  hek293_glo_emax_40: 0
  hek293_glo_pod_40: -4.417
  hek293_glo_wauc_40: 0

## Clc1ccccc1C(c1ccccc1)(c1ccccc1)n1ccnc1 [Clotrimazole, reference compound]
Estrogen receptor (ER)
  AUC score in Judson 2015: 0.00844

## CC[C@H](c1ccc(O)cc1)[C@@H](CC)c1ccc(O)cc1 [meso-Hexestrol]
Estrogen receptor (ER)
  AUC score in Judson 2015: 0

## CC(C)(C)c1ccc(O)c(C(C)(C)C)c1 [2,4-Di-tert-butylphenol]
Estrogen receptor (ER)
  AUC score in Judson 2015: 0

## CC(C)(C)c1cc(/C=C2\SC(N)=NC2=O)cc(C(C)(C)C)c1O [Darbufelone mesylate]
Estrogen receptor (ER)
  AUC score in Judson 2015: 0

## CCCCC(O)(Cn1cncn1)c1ccc(Cl)cc1Cl (stereo not shown) [Hexaconazole]
Estrogen receptor (ER)
  AUC score in Judson 2015: 0.00822

## CCC(C)(C)c1ccc(O)c(C(C)(C)CC)c1 [2,4-Bis(2-methylbutan-2-yl)phenol]
Estrogen receptor (ER)
  AUC score in Judson 2015: 0.00113

## CC/C(=C(\c1ccccc1)c1ccc(OCCN(C)C)cc1)c1ccccc1 [Tamoxifen citrate]
Estrogen receptor (ER)
  AUC score in Judson 2015: 0.546
